Patent publication US20110166206A1, “UBIQUILIN REGULATION OF PRESENILIN ENDOPROTEOLYSIS, AND SUPPRESSION OF POLYGLUTAMINE-INDUCED TOXICITY IN CELLS” (UNIVERSITY OF MARYLAND BIOTECHNOLOGY INSTITUTE, priority 2005, published 2011)

Legend:
GFP-HttQ74-3 cell line = type: cell-based; details: 100 uM, 5 hours exposure
Source text: FIG. 11. […] The 28Q-2 and 74Q-3 were used in most of our studies. The asterisk corresponds to a non-specific band that is detected by the GFP antibody. • B. Representative fluorescent images of GFP-HttPolyQ(28)-2 and GFP-HttPolyQ(74)-3 stable cell lines. Note that GFP fluorescence is located in both the cytoplasm and the nucleus, but that compact foci are only seen in the GFP-HttPolyQ(74)-3 cells. • C. Cells expressing expanded polyglutamine proteins are more sensitive to H2O2. The GFP-HftPolyQ(28)-2 and GFP-HttPolyQ(74)-3 stable cell lines were exposed to 200 μM concentration of H2O2 and after 5 hr, the cells were stained with both Hoechest 33342 and PI. […] Percentages of cell death calculated by determining the ratio of PI-positively stained cells to that of Hoechst-stained cells. […] Cell death was quantified as described in D above. • H. Representative images showing that ubiquilin-1 overexpression protects GFP-HttPolyQ(74)-3 expressing cells against serum withdrawal-induced cell death, in a dose-dependent manner. […] Bottom panel: Quantification of the spot intensity determined in three independent experiments.
Cell death was monitored either through examination of the nuclear morphology observed after Hoechst 33342 (1 μg/ml) staining, or through detecting the membrane selective permeability following 3 μM of propidium iodide (PI) staining. […]

PS2 NTF [1] = test: Cycloheximide time course of PS2 fragment production in PS2 inducible cells with or without UBQLN1 transfection; type: cell-based, human; details: PS2 inducible cell lysates, densitometry
Procedure: (A) Time course experiment using ponA-induced PS2 cell line cultures transfected with or without UBQLN1 expression plasmids were treated with […] cycloheximide for 0-6 hours. Equal amounts of protein lysate were separated by 8.5% SDS-PAGE and subsequently immunoblotted with anti-UBQLN antibody. Transfected cells reveal a 4-fold increase in UBQLN1 levels. Next, the protein lysates were immunoblotted using anti-PS2 NH,-terminal antibody to detect FL and NTF PS2 levels, as indicated. Note both FL PS2 turnover and NTF production levels in transfected versus untransfected cell lysates.
(B) Same experiment as (A) except FL PS expression was not induced using PonA.
(C) Graphs showing relative levels of PS2 polypeptides in PS2 inducible cell lysates after densitometric analysis of the immunoreactive bands shown in panels A and B. The levels were calculated by normalization of the signals relative to that in Lane 1. The Microsoft Excel program was used to produce a best-fit line for each graph. […] However, this is completely opposite of NTF levels. UBQLN not only decreases NTF levels at every time-point in the experiment, but it also slows the rate of NTF production, as determined by measuring the slope of each line.
HeLa and HEK293 cells were grown in DMEM supplemented with 10% FBS. PS1 and S2 inducible cell lines were generated by transfection of the pERV-expressing HEK293 cell line (Stratgene, IaIolla, Calif.) with FL human PS2 cDNA under the control of ponasteroneA (PonA)-inducible cassette in plasmid pEGSH (Stratagene). Stable integration of the pEGSH plasmid was achieved by selection for hygromycin resistance. PS expression was induced by adding PonA (final cont. 10 pM) to the medium. For proteasome inhibition studies, cultures were treated with 40 uM MG132 (Calbiochem, San Diego, Calif.) for time periods as indicated. […]
To this end, protein synthesis was inhibited using cyclohexamide (CHX) and PS fragment production was monitored over a six-hour time period in UBQLN transfected and untransfected lysates that were either induced or uninduced for PS expression. […]

Pen-2 = test: UBQLN overexpression in PS inducible cells, Pen-2 immunoblot; type: cell-based; details: induced lysates
Source text: (§1) (A) Examination of Nicastrin, Aph-1 and Pen-2 levels in PS1 cells lines that were either not induced (lanes 1 and 3) or induced with PonA (lanes 2 and 4) and either left untransfected (lanes 1 and 2) or transfected with UBQLN1 cDNA (lanes 3 and 4). Equivalent amounts of protein lysates were separated by 10% SDS-PAGE and immunoblotted with the appropriate antibodies. The filter was then reprobed an anti-actin to ensure equal loading. UBQLN overexpression decreases Pen-2 and Nicastrin levels.
(C) Densitometric analysis was used to quantify the extent of reduction. Each experiment was repeated more than three times.
(§2) Preparation of protein lysates, SDS-PAGE and immunoblotting of proteins were described previously. Primary antibodies used were rabbit anti-PS2 loop and rabbit anti-PS2 NH,-terminus, both raised to GST-PS2 fusion proteins; rabbit anti-ubiquilin [43] which reacts with UBQLN1 and UBQLN2 polypeptides; rat anti-PS1 NH2,-terminus (Chemicon International, Temecula, Calif.); rabbit anti-PS1 loop raised to GST-PS1 fusion proteins; goat anti-p27 and goat anti-actin (Santa Cruz Biotechnology, Santa Cruz, Calif.); mouse monoclonal anti-tubulin (Sigma-Aldrich, St. Louis, Mo.); rabbit anti-nicastrin (Abeam, Cambridge, Mass.), rabbit anti-Pen-2 (Zymed, San Francisco, Calif.); and rabbit anti-Aph-la (Covance, Berkeley, Calif.). […]

Nicastrin = test: UBQLN overexpression in PS inducible cells, Nicastrin immunoblot; type: cell-based; details: UBQLN overexpressed
Source text: as §1, §2

Aph-1 = test: UBQLN overexpression in PS inducible cells, Aph-1 immunoblot; type: cell-based; details: UBQLN overexpressed
Source text: as §1, §2

PS2 NTF [2] = test: Pulse-chase of PS2 NTF turnover with or without UBQLN overexpression; type: cell-based; details: 35 hour chase, with vs without UBQLN overexpression

| Compound | cell death (GFP-HttQ74-3 cell line) | FL PS2 levels (PS2 NTF [1]) | reduction of Pen-2 levels (Pen-2) [fold] | levels of mature Nicastrin (Nicastrin) | Aph-1 levels (Aph-1) | turnover of PS2 NTF (PS2 NTF [2]) |
| --- | --- | --- | --- | --- | --- | --- |
| OO [H2O2] | approximately 30% | – | – | – | – | – |
| UBQLN: ubiquilin protein overexpressed from cDNA plasmids, isoform not specified at the place | – | increases FL PS2 levels dramatically | 2 | decreased | remain steady | no significant difference |
